Measured values from US6893630B2, “Anti-microbial antiperspirant products” (Unilever Home & Personal Care USA, division of Conopco, Inc., priority 2000, dated 2005).
“Also recorded” adds a separate entry of the source. Where two headings read alike, the source gives them in different places.

How the values were obtained:
[1] = system: Staphylococcus epidermidis; test: Anti-microbial performance of chelators: growth inhibition in semi-synthetic medium by optical density; type: cell-based; conditions: for "micro-molar active" criterion (significant inhibition of growth, at least 30%, at 3×10^−6 mol.dm^−3 or less): S. epidermidis; for Inhibition of growth (%): chelator 3×10^−6 mol.dm^−3, 16 hours at 37° C., optical density at 600 nm vs control medium
Protocol: An axillary isolate of Staphylococcus epidermidis was grown overnight in 100 ml of tryptone soy broth (TSB, Oxoid Ltd). 10 ml of this culture was taken and subjected to centrifugation. The separated cells were re-suspended in 10 ml of phosphate buffered saline and the centrifugation procedure repeated. The washed cells were re-suspended in 10 ml of phosphate buffered saline to give the inoculum. 100 μl of the inoculum was added to 100 ml of semi-synthetic medium (SSM) containing (NH4)2SO4 (0.066 g), MgSO4.7H2O (0.012 g), KCl (0.1 g), KH2PO4 (0.27 g), Na2HPO4 (1.43 g), thiamin (0.1 mg), biotin (0.05 mg), Peptone P (0.05 g), and glucose (2.0 mmole) which had been previously sterilised by autoclaving at 121° C. for 20 minutes. The pH of the SSM was adjusted to 6.7 with HCl after sterilisation, prior to addition of the inoculum. This control medium was utilised in all of the in vitro inhibition studies. The chelator-containing test media were prepared in a similar manner, the chelator being introduced at a concentration of 3×10^−6 mol.dm^−3 before the pH adjustment with HCl.
100 μl of the S. epidermidis inoculum was introduced into the control medium and into test media containing the chelators indicated in Table 2. The cultures were inoculated at 37° C. (with agitation at 200 rpm) for 16 hours, and the optical density of the cultures measured at 600 nm to determine the extent of bacterial growth. By comparison of the optical density of the culture in the presence of chelating agent, to that of the control, the percentage inhibition of growth was established. (Optical density measurements were made on 1 in 4 dilutions of the cultures with 0.9% (w/v) saline, using 1 cm path length cuvettes, on a Pharmacia Biotech Ultrospec 200 Spectrophotometer.)

[2] = system: relevant micro-organism; conditions: cited from earlier work

SMILES	"micro-molar active" criterion (significant inhibition of growth, at least 30%, at 3×10^−6 mol.dm^−3 or less) [1]	Inhibition of growth (%) [1]	MIC ([2]; stated by contrast, no source given)	MIC ([2]; literature values)
O=C(O)CN(CC(=O)O)[C@@H]1CCCC[C@H]1N(CC(=O)O)CC(=O)O (relative stereo) [CDTA, trans-1,2-diaminocyclohexane-N,N,N′,N′-tetraacetic acid]	exclude; also recorded: fail this criterion	12.3%		
O=C(O)CN(CCN(CC(=O)O)CC(=O)O)CCN(CC(=O)O)CC(=O)O [DTPA, diethylenetriaminepentaacetic acid]	capable of achieving significant inhibition; also recorded: meet the criterion	56.5%		
O=C(O)CN(CCN(CC(=O)O)CC(=O)O)CC(=O)O [EDTA, ethylenediaminetetraacetic acid]	exclude; also recorded: fail this criterion	0%		
O=C(O)CN(CCN(CCN(CC(=O)O)CC(=O)O)CC(=O)O)CCN(CC(=O)O)CC(=O)O [TTHA, triethylenetetraaminehexaacetic acid]	capable of achieving significant inhibition; also recorded: meet the criterion	56.3%		
CCO [ethanol]			greater than 1 mg.ml^−1	
CC(C)=CCCC(C)=CCCC(C)=CCO [farnesol, 3,7,11-trimethyldodeca-2,6,10-trienol]				ca. 25 μg.ml^−1
Oc1cc(Cl)ccc1Oc1ccc(Cl)cc1Cl [triclosan, 2′,4,4′-trichloro,2-hydroxy-diphenyl ether]				0.01 to 10 µg/mL
